“Also recorded” adds a separate entry of the source.

The source of these data is patent US20180059115A1, “METHODS FOR MONITORING POLYMORPHONUCLEAR MYELOID DERIVED SUPPRESSOR CELLS, AND COMPOSITIONS AND METHODS OF TREATMENT OF CANCER” (The Wistar Institute of Anatomy and Biology, priority 2016, published 2018).

Assay [1] has as its system PMN isolated from healthy donors. Put plainly: LOX-1 expression in PMN treated with cytokines or tumor-cell conditioned medium. The format is cell-based, human. To be noted: healthy donor PMN, 24 hr culture, GM-CSF added; TCM 20% v/v. The method, then: FIGS. 11A and 11B show the mechanism regulating LOX-1 expression on PMN-MDSC, specifically the percentage of LOX-1+ PMN (FIG. 11A) and expression of LOX-1 (FIG. 11B) in PMN isolated from 4 healthy donors and treated with indicated cytokines. Range of concentrations based on reported data were tested and only one for each cytokine is shown. Conditioned medium from PCI30 tumor cells (TCM) was used at 20% v/v concentration. Mean and SD are shown.
What could induce LOX-1 up-regulation in PMN-MDSC? Based on the fact that in endothelial cells LOX-1 can be induced by pro-inflammatory cytokines^35, we tested the effect of several cytokines as well as tumor-cell conditioned medium (TCM) on LOX-1 expression in PMN isolated from healthy donors. None of the tested pro-inflammatory cytokines (IL-1β, TNFα, IL-6) or TCM induced upregulation of LOX-1 in PMN after 24 hr culture (GM-CSF was added to protect PMN viability) (FIGS. 11A and 11B).

The next assay has as its system hepatic L02 cells. To be noted: cited from earlier work.
Assay [2] relates to T lymphocytes. In words: Three-way allogeneic MLR suppression assay (thymidine incorporation). It is filed as cell-based, human. The following applies: 1 μM NAC, 1000 U/ml catalase, 20 μM Nor-NOHA, 1:2 PMN:T cell ratio. An excerpt: Whole blood was enriched for PMNs using MACSxpress® Neutrophil Isolation Kit (Miltenyi) following the protocol provided by the manufacturer. Cells were then labeled with anti-Lox1-PE mAb (Biolegend) and then separated using anti-PE beads and MACS column (Miltenyi). For the three-way allogenic MLR suppression assay, T lymphocytes from one healthy donor were purified using the Human CD3+ T Cell Enrichment Column Kit (R&D Systems) and used as responder cells. Dendritic cells were generated from adherent monocytes from another healthy donor in the presence of 25 ng/mL GM-CSF and 25 ng/mL IL-4 (Peprotech) for 6 days and used as stimulator cells. Responder and stimulator cells were then mixed at a 10:1 ratio followed by the addition of Lox1+ or Lox1− PMNs. T lymphocyte proliferation was assessed after 5 days of culture by thymidine incorporation.
In some experiments, 1 μM N-acetyl cysteine (NAC; Sigma) or 20 μM of Nω-hydroxy-norarginine (nor-NOHA; Cayman Chemical) was added to the culture media to block ROS or agrinase I activity, respectively. T lymphocyte proliferation was assessed after 5 days of culture by thymidine incorporation.
Background: Uptake of a labelled nucleoside into DNA is a usual measure of proliferation.

The test system of assay [3] is PMN isolated from healthy donors. In words: In vitro PMN LOX-1 induction by ER stress inducers, LOX-1 by flow cytometry. The format is cell-based, human. To be noted: overnight with GM-CSF, THG 1 μM, DTT 1 mM. As to the method: (§1) PMNs from healthy donors were isolated on a Histopaque gradient. 5×10^5 cells/ml were cultured for 12 hrs with 10 ng/ml of GM-CSF in the presence of dithiothreitol (DTT) (0.5, 1, 2 mM; Sigma), tunicamycin (0.5, 1, and 2 μg/ml; Sigma-Aldrich), or thapsigargin (0.5, 1, and 2 μM; Sigma). In some instances, 20 μM of the XBP-1 inhibitor BIO9 was added 3 hours prior to culture. Cells were then stained for flow cytometry or used for functional assays as described above.
Flow cytometry data were acquired using a BD LSR II flow cytometer and analyzed using FlowJo software (Tree Star) Immunofluorescent microscopy: Following deparaffinization and rehydration, heat induced antigen retrieval was performed using Tris-EDTA buffer pH 9. Followed by blocking with 5% BSA, tissues were stained with Lox1 antibody (Abcam; Cat no ab126538) and CD15 antibody (BD biosciences; Cat no 555400) at 1:200 dilution in 5% BSA each for 1 hour at room temperature. The following secondary antibodies were used Alexa Fluor anti-rabbit A647 (1:200 dilution in 5% BSA, Life technologies) for Lox1 and anti-mouse A514 (1:400 dilution in 5% BSA, Life technologies) for CD15 staining. CD15 staining was pseudo colored red and Lox1 staining was pseudo colored green. Nucleus was stained using DAPI (1:5000 dilution in PBS, Life technologies). Images were obtained using Leica TCS SP5 Confocal microscope. […]
(Flow cytometry measures light scatter and fluorescence of single cells or particles in a stream.)

In assay [4] the test system is T lymphocytes. Put plainly: CD3/CD28 induced T-cell proliferation suppression assay (3H-thymidine uptake). It is filed as cell-based, human. The following applies: healthy donor PMN treated overnight with 1 μM THG, washed. As to the method:
Concurrently, T-lymphocytes were isolated from the PBMC of the same patient as LOX-1+ PMN using human CD3+ T Cell Enrichment Column Kit. PMNs were plated at different ratios with […] T lymphocytes in a 96-well plate coated with 10 μg/ml anti-CD3 (clone UCHT1; BD Biosciences) followed by the addition of 1 μg/ml of soluble anti-CD28 (clone CD28.2; BD Biosciences). T lymphocyte proliferation was assessed after 3 days of culture by thymidine incorporation.
as §1

In the case of IL-1β: pro-inflammatory cytokine, in assay [1], the “upregulation of LOX-1 in PMN” value is reported as “None”.
For tunicamycin, in the assay with hepatic L02 cells, the “LOX-1 expression under ER stress” value was “caused down-regulation of LOX-1”.
Take `CC(=O)N[C@@H](CS)C(=O)O` [NAC, N-acetylcysteine]: in the assay with T lymphocytes [2], the “effect on LOX-expression in PMN / immune suppressive activity of LOX-1+ PMN-MDSC” value is given as “substantially decreased LOX-expression”.
`N=C(NO)NCC[C@H](N)C(=O)O` [Nor-NOHA, Nω-hydroxy-norarginine]: the “effect on LOX-expression in PMN / immune suppressive activity of LOX-1+ PMN-MDSC” value in the assay on T lymphocytes [2] is “substantially decreased LOX-expression”.
In the case of `O[C@H](CS)[C@H](O)CS` (racemic) [DTT, dithiothreitol], the “LOX-1 expression in PMN” value in assay [3] was “dramatic up-regulation of LOX-1 expression”.
For catalase, the “effect on LOX-expression in PMN / immune suppressive activity of LOX-1+ PMN-MDSC” value with T lymphocytes [2] was “substantially decreased LOX-expression”.
For the molecule IL-6: pro-inflammatory cytokine, the “upregulation of LOX-1 in PMN” value in assay [1] is recorded as “None”.
Turning to `C/C=C(/C)C(=O)O[C@H]1C(C)=C2[C@H]([C@@H]1OC(=O)CCCCCCC)[C@@](C)(OC(C)=O)C[C@H](OC(=O)CCC)[C@@]1(O)[C@H]2OC(=O)[C@@]1(C)O` [THG, thapsigargin], the “LOX-1 expression in PMN” value in assay [3] is recorded as “dramatic up-regulation of LOX-1 expression”. The “immune suppressive activity of treated PMN (T-cell proliferation)” value with T lymphocytes [4] is “caused acquisition of potent immune suppressive activity; also recorded: converted PMN to PMN-MDSC”.
With TNFα, the “upregulation of LOX-1 in PMN” value in assay [1] is given as “None”.
